Drawing on ChEMBL document CHEMBL3112414, “Synthesis of 3-tetrazolylmethyl-4H-chromen-4-ones via Ugi-azide and biological evaluation against Entamoeba histolytica, Giardia lamblia and Trichomona vaginalis” (Bioorg Med Chem, 2014), this text covers IC50 for 16 compounds.

Molecules are shown by their SMILES.

What all share (type): functional, organism-based
In one test the test system is Entamoeba histolytica. Nature of the test: Antiprotozoal activity against trophozoite stage of Entamoeba histolytica HM-1:IMSS assessed as growth inhibition after 48 hrs.
The next test has as its system Giardia intestinalis. Nature of the test: Antiprotozoal activity against trophozoite stage of Giardia lamblia IMSS:8909:1 assessed as growth inhibition after 48 hrs. The following applies: Giardia duodenalis, IMSS:8909:1, 48 h.
The next test has as its system Trichomonas vaginalis. Nature of the test: Antiprotozoal activity against trophozoite stage of Trichomonas vaginalis GT3 assessed as growth inhibition.

As a reminder, the IC50 is the concentration at which inhibition is half-maximal.

On to `O=c1c(C(Nc2ccccc2Br)c2nnnn2C2CCCCC2)coc2ccccc12` (stereo not given), for which the results for the IC50 in the test on Entamoeba histolytica, with Giardia intestinalis and in the test with Trichomonas vaginalis were 114 µM, 253 µM and 195 µM, respectively.

Take `O=c1c(C(Nc2ccccc2[N+](=O)[O-])c2nnnn2C2CCCCC2)coc2ccccc12` (stereo not given): the IC50 was found to be 124 µM in the test with Entamoeba histolytica, 194 µM in the test on Giardia intestinalis and 188 µM in the test with Trichomonas vaginalis.

As for `CC(C)(C)n1nnnc1C(Nc1ccccc1I)c1coc2ccccc2c1=O` (stereo not given), the figures for the IC50 with Entamoeba histolytica, with Giardia intestinalis and in the test with Trichomonas vaginalis were 134 µM, 207 µM and 280 µM, respectively.

`O=c1c(C(Nc2ccccc2I)c2nnnn2C2CCCCC2)coc2ccccc12` (stereo not given): the figures for the concentration for half-maximal inhibition (IC50) in the test on Entamoeba histolytica, in the test with Giardia intestinalis and in the test on Trichomonas vaginalis were 122 µM, 198 µM and 282 µM, respectively.

Consider `CC(C)(C)n1nnnc1C(Nc1ccccc1)c1coc2ccccc2c1=O` (stereo not given), for which the figures for the IC50 in the test on Entamoeba histolytica, with Giardia intestinalis and with Trichomonas vaginalis were 188 µM, 316 µM and 432 µM, respectively.

In the case of `O=c1c(C(Nc2ccccc2)c2nnnn2C2CCCCC2)coc2ccccc12` (stereo not given), the IC50 in the test on Entamoeba histolytica came out at 183 µM; with Giardia intestinalis, 286 µM; in the test on Trichomonas vaginalis, 374 µM.

`CC(C)(C)n1nnnc1C(Nc1ccc(Cl)cc1)c1coc2ccccc2c1=O` (stereo not given): the results for the IC50 in the test with Entamoeba histolytica, with Giardia intestinalis and in the test with Trichomonas vaginalis were 161 µM, 269 µM and 371 µM, respectively.

As to `O=c1c(C(Nc2ccc(Cl)cc2)c2nnnn2C2CCCCC2)coc2ccccc12` (stereo not given), the IC50 is 176 µM with Entamoeba histolytica, 218 µM in the test on Giardia intestinalis and 284 µM with Trichomonas vaginalis.

For `CC(C)(C)n1nnnc1C(Nc1ccc(I)cc1)c1coc2ccccc2c1=O` (stereo not given), the IC50 in the test on Entamoeba histolytica turned out to be 142 µM; in the test on Giardia intestinalis, 197 µM; with Trichomonas vaginalis, 246 µM.

In the case of `O=c1c(C(Nc2ccc(I)cc2)c2nnnn2C2CCCCC2)coc2ccccc12` (stereo not given), the IC50 came to 117 µM with Entamoeba histolytica, 226 µM with Giardia intestinalis and 222 µM in the test with Trichomonas vaginalis.

Regarding `O=c1c(C(Nc2ccc([N+](=O)[O-])cc2)c2nnnn2C2CCCCC2)coc2ccccc12` (stereo not given), the IC50 in the test with Entamoeba histolytica stood at 116 µM; with Giardia intestinalis, 247 µM; in the test on Trichomonas vaginalis, 205 µM.

Turning to `COc1ccc(NC(c2coc3ccccc3c2=O)c2nnnn2-c2c(C)cccc2C)cc1OC` (stereo not given), the figures for the IC50 in the test with Entamoeba histolytica, in the test with Giardia intestinalis and with Trichomonas vaginalis were 111 µM, 240 µM and 192 µM, respectively.

`COc1cc(NC(c2coc3ccccc3c2=O)c2nnnn2C2CCCCC2)cc(OC)c1OC` (stereo not given): the values for the IC50 in the test on Entamoeba histolytica, in the test on Giardia intestinalis and with Trichomonas vaginalis were 87.9 µM, 171 µM and 176 µM, respectively.

As to `CC(C)(C)n1nnnc1C(Nc1ccccc1Br)c1coc2ccccc2c1=O` (stereo not given), the IC50 in the test on Entamoeba histolytica was 125 µM; in the test on Giardia intestinalis it was 242 µM; with Trichomonas vaginalis, 234 µM.

Turning to `COc1ccc(-c2coc3cc(O)ccc3c2=O)cc1` [FORMONONETIN], in the test on Giardia intestinalis, the half-inhibitory concentration (IC50) came to 0.03 mg/L.

Turning to `Cc1ncc([N+](=O)[O-])n1CCO` [METRONIDAZOLE], the figures for the concentration for half-maximal inhibition (IC50) in the test with Entamoeba histolytica and with Giardia intestinalis were 0.23 mg/L and 1.22 mg/L, respectively.
